# From patent US20090291938A1 (TAKEDA PHARMACEUTICAL COMPANY LIMITED, priority 2007, published 2009)
# System: HT29 human colorectal adenocarcinoma cell line
# Test: cell proliferation assay (Cell Titer-Glo luminescent cell viability assay)
# Assay type: cell-based
# Conditions: HT-29, 72 h, read-out: pIC50 (converted)
# Experimental: The cell culture and proliferation assay may be carried out as follows: the HT29 human colorectal adenocarcinoma cell line (ATCC, USA) was maintained in Dulbecco's Modified Eagle's Medium (Invitrogen, USA) supplemented with 10% fetal bovine serum (JRH, USA). The cell proliferation assay was carried out with the Cell Titer-Glo luminescent cell viability assay (Promega, USA) according to the manufacture's instruction after the 72 hr treatment of the cells in the presence of the compounds. The cell viability was shown as a percentage of DMSO treated cells.
row,Compound,IC50 [nM]
1,"COc1cc(C(=O)O)ccc1Nc1ncc2c(n1)N(C1CCCC1)CC(C)(C)C(=O)N2C [Compound 85, 4-(9-Cyclopentyl-5,7,7-trimethyl-6-oxo-6,7,8,9-tetrahydro-5H-pyrimido[4,5-b][1,4]diazepin-2-ylamino)-3-methoxybenzoic Acid]",3.16 to 10

# Same assay, conditions: HT-29, cell proliferative assay, HT29 cells, 72 hr treatment, values given as ranges, read-out: pIC50 (converted)
row,Compound,IC50 [nM]
1,"COc1cc(C(=O)NC2CN(C)C2)ccc1Nc1ncc2c(n1)N(C1CCCC1)CC(C)(C)C(=O)N2C [Compound 95, 4-(9-cyclopentyl-5,7,7-trimethyl-6-oxo-6,7,8,9-tetrahydro-5H-pyrimido[4,5-b][1,4]diazepin-2-ylamino)-3-methoxy-N-(1-methylazetidin-3-yl)benzamide]",1 to 2.51
2,"COc1cc(C(=O)NC2CCN(C)CC2)ccc1Nc1ncc2c(n1)N(C1CCC1)CC(C)(C)C(=O)N2C [Compound 153, 4-(9-cyclobutyl-5,7,7-trimethyl-6-oxo-6,7,8,9-tetrahydro-5H-pyrimido[4,5-b][1,4]diazepin-2-ylamino)-3-methoxy-N-(1-methylpiperidin-4-yl)benzamide]",3.16 to 10
3,"CCC1(C)CN(C2CCCCC2)c2nc(Nc3ccc(C(=O)N[C@H]4CC[C@H](O)CC4)cc3OC)ncc2N(C)C1=O (stereo partly drawn) [Compound 141, 4-(9-cyclohexyl-7-ethyl-5,7-dimethyl-6-oxo-6,7,8,9-tetrahydro-5H-pyrimido[4,5-b][1,4]diazepin-2-ylamino)-N-((1R,4R)-4-hydroxycyclohexyl)-3-methoxybenzamide]",3.16 to 10
4,"C=CC[C@H]1CN(C2CCCC2)c2nc(Nc3ccc(C(=O)N[C@@H]4CCN(C)C4)cc3OC)ncc2N(C)C1=O [Compound 204, 4-((S)-7-allyl-9-cyclopentyl-5-methyl-6-oxo-6,7,8,9-tetrahydro-5H-pyrimido[4,5-b][1,4]diazepin-2-ylamino)-3-methoxy-N-((R)-1-methylpyrrolidin-3-yl)benzamide]",1 to 2.51
5,"C=CCC1CN(C2CCCCC2)c2nc(Nc3ccc(C(=O)NN4CCN(C)CC4)cc3OC)ncc2N(C)C1=O (centres unmarked) [Compound 226, 4-(7-allyl-9-cyclohexyl-5-methyl-6-oxo-6,7,8,9-tetrahydro-5H-pyrimido[4,5-b][1,4]diazepin-2-ylamino)-3-methoxy-N-(4-methylpiperazin-1-yl)benzamide]",1 to 2.51
6,"C=C[C@@]1(C)CN(C2CCCC2)c2nc(Nc3ccc(C(=O)NC4CCN(C)CC4)cc3OC)ncc2N(C)C1=O [Compound 241, (S)-4-(9-cyclopentyl-5,7-dimethyl-6-oxo-7-vinyl-6,7,8,9-tetrahydro-5H-pyrimido[4,5-b][1,4]diazepin-2-ylamino)-3-methoxy-N-(1-methylpiperidin-4-yl)benzamide]",> 10
7,"COc1cc(C(=O)NC2CCN(C)CC2)ccc1Nc1ncc2c(n1)N(C1CCCC1C)CC1(CC1)C(=O)N2C (centres unmarked) [Compound 177, 3-methoxy-4-(5′-methyl-9′-(2-methylcyclopentyl)-6′-oxo-5′,6′,8′,9′-tetrahydrospiro[cyclopropane-1,7′-pyrimido[4,5-b][1,4]diazepine]-2′-ylamino)-N-(1-methylpiperidin-4-yl)benzamide]",< 1
8,"COc1cc(C(=O)NN2CCN(C)CC2)ccc1Nc1ncc2c(n1)N(C1CCCCC1)CC1(CC1)C(=O)N2C [Compound 170, 4-(9′-cyclohexyl-5′-methyl-6′-oxo-5′,6′,8′,9′-tetrahydrospiro[cyclopropane-1,7′-pyrimido[4,5-b][1,4]diazepine]-2′-ylamino)-3-methoxy-N-(4-methylpiperazin-1-yl)benzamide]",< 1
9,"C=CCC1CN(C2CCCCC2)c2nc(Nc3ccc(C(=O)N[C@H]4CCCN(C)C4)cc3OC)ncc2N(C)C1=O (stereo partly drawn) [Compound 227, 4-(7-allyl-9-cyclohexyl-5-methyl-6-oxo-6,7,8,9-tetrahydro-5H-pyrimido[4,5-b][1,4]diazepin-2-ylamino)-3-methoxy-N-((S)-1-methylpiperidin-3-yl)benzamide]",> 10
10,"COc1cc(C(=O)N[C@@H]2CCN(C)C2)ccc1Nc1ncc2c(n1)N(C1CCCC1)CC(C)(C)C(=O)N2C [Compound 96, (R)-4-(9-cyclopentyl-5,7,7-trimethyl-6-oxo-6,7,8,9-tetrahydro-5H-pyrimido[4,5-b][1,4]diazepin-2-ylamino)-3-methoxy-N-(1-methylpyrrolidin-3-yl)benzamide]",3.16 to 10
11,"COc1cc(C(=O)NN2CCN(C)CC2)ccc1Nc1ncc2c(n1)N(C1CCCCC1)CC(C)(C)C(=O)N2C [Compound 112, 4-(9-cyclohexyl-5,7,7-trimethyl-6-oxo-6,7,8,9-tetrahydro-5H-pyrimido[4,5-b][1,4]diazepin-2-ylamino)-3-methoxy-N-(4-methylpiperazin-1-yl)benzamide]",1 to 2.51
12,"C=CC1(C)CN(C2CCCC2)c2nc(Nc3ccc(C(=O)NN4CCN(C)CC4)cc3OC)ncc2N(C)C1=O (centres unmarked) [Compound 242, 4-(9-cyclopentyl-5,7-dimethyl-6-oxo-7-vinyl-6,7,8,9-tetrahydro-5H-pyrimido[4,5-b][1,4]diazepin-2-ylamino)-3-methoxy-N-(4-methylpiperazin-1-yl)benzamide]",> 10
13,"C=CC[C@H]1CN(C2CCCC2)c2nc(Nc3ccc(C(=O)N[C@@H]4CCNC4)cc3OC)ncc2N(C)C1=O [Compound 202, 4-((S)-7-allyl-9-cyclopentyl-5-methyl-6-oxo-6,7,8,9-tetrahydro-5H-pyrimido[4,5-b][1,4]diazepin-2-ylamino)-3-methoxy-N-((R)-pyrrolidin-3-yl)benzamide]",1 to 2.51
14,"COc1cc(C(=O)NC2CCOCC2)ccc1Nc1ncc2c(n1)N(C1CCCC1)CC(C)(C)C(=O)N2C [Compound 94, 4-(9-cyclopentyl-5,7,7-trimethyl-6-oxo-6,7,8,9-tetrahydro-5H-pyrimido[4,5-b][1,4]diazepin-2-ylamino)-3-methoxy-N-(tetrahydro-2H-pyran-4-yl)benzamide]",1 to 2.51

# Now from value to compound:
row,IC50 [nM],Compound
1,> 10,"CCN(CC)C1CCC(NC(=O)c2ccc(Nc3ncc4c(n3)N(C3CCCC3)CCC(=O)N4C)c(OC)c2)CC1 (centres unmarked) [Compound 79, 4-(9-cyclopentyl-5-methyl-6-oxo-6,7,8,9-tetrahydro-5H-pyrimido[4,5-b][1,4]diazepin-2-ylamino)-N-(4-(diethylamino)cyclohexyl) 3-methoxybenzamide]"
2,> 10,"COc1cc(C(=O)NCC2CCN(C(=O)C3CC3)CC2)ccc1Nc1ncc2c(n1)N(C1CCCC1)CCC(=O)N2C [Compound 76, 4-(9-cyclopentyl-5-methyl-6-oxo-6,7,8,9-tetrahydro-5H-pyrimido[4,5-b][1,4]diazepin-2-ylamino)-N-((1-(cyclopropanecarbonyl)piperidin-4-yl)methyl)-3-methoxybenzamide]"
3,3.16 to 10,"COc1cc(C(=O)NCc2ccncc2)ccc1Nc1ncc2c(n1)N(C1CCCC1)CCC(=O)N2C [Compound 71, 4-(9-cyclopentyl-5-methyl-6-oxo-6,7,8,9-tetrahydro-5H-pyrimido[4,5-b][1,4]diazepin-2-ylamino)-3-methoxy-N-(pyridin-4-ylmethyl)benzamide]"
4,> 10,"COc1cc(C(=O)N[C@@H]2CCN(C)C2)ccc1Nc1ncc2c(n1)N(C1CCCC1)CCC(=O)N2C [Compound 51, (R)-4-(9-cyclopentyl-5-methyl-6-oxo-6,7,8,9-tetrahydro-5H-pyrimido[4,5-b][1,4]diazepin-2-ylamino)-3-methoxy-N-(1-methylpyrrolidin-3-yl)benzamide]"
5,1 to 2.51,"COc1cc(C(=O)N[C@H]2CCCNC2)ccc1Nc1ncc2c(n1)N(C1CCCC1)CC1(CC1)C(=O)N2C [Compound 166, (S)-4-(9′-cyclopentyl-5′-methyl-6′-oxo-5′,6′,8′,9′-tetrahydrospiro[cyclopropane-1,7′-pyrimido[4,5-b][1,4]diazepine]-2′-ylamino)-3-methoxy-N-(piperidin-3-yl)benzamide]"
6,3.16 to 10,"COc1cc(C(=O)NCCN2CCCC2)ccc1Nc1ncc2c(n1)N(C1CCCC1)CC(C)(C)C(=O)N2C [Compound 93, 4-(9-cyclopentyl-5,7,7-trimethyl-6-oxo-6,7,8,9-tetrahydro-5H-pyrimido[4,5-b][1,4]diazepin-2-ylamino)-3-methoxy-N-(2-(pyrrolidin-1-yl)ethyl)benzamide]"
7,3.16 to 10,"CC[C@@]1(C)CN(C2CCCCC2)c2nc(Nc3ccc(C(=O)N[C@H]4CCCNC4)cc3OC)ncc2N(C)C1=O [Compound 149, 4-((S)-9-cyclohexyl-7-ethyl-5,7-dimethyl-6-oxo-6,7,8,9-tetrahydro-5H-pyrimido[4,5-b][1,4]diazepin-2-ylamino)-3-methoxy-N-((S)-piperidin-3-yl)benzamide]"
8,< 1,"C=CC[C@H]1CN(C2CCCC2)c2nc(Nc3ccc(C(=O)N[C@H]4CCCN(C)C4)cc3OC)ncc2N(C)C1=O [Compound 198, 4-((S)-7-allyl-9-cyclopentyl-5-methyl-6-oxo-6,7,8,9-tetrahydro-5H-pyrimido[4,5-b][1,4]diazepin-2-ylamino)-3-methoxy-N-((S)-1-methylpiperidin-3-yl)benzamide]"
9,3.16 to 10,"COc1cc(C(=O)NCCCN2CCCC2=O)ccc1Nc1ncc2c(n1)N(C1CCCC1)CCC(=O)N2C [Compound 38, 4-(9-cyclopentyl-5-methyl-6-oxo-6,7,8,9-tetrahydro-5H-pyrimido[4,5-b][1,4]diazepin-2-ylamino)-3-methoxy-N-(3-(2-oxopyrrolidin-1-yl)propyl)benzamide]"
10,3.16 to 10,"COc1cc(C(=O)NCc2ccccn2)ccc1Nc1ncc2c(n1)N(C1CCCC1)CCC(=O)N2C [Compound 69, 4-(9-cyclopentyl-5-methyl-6-oxo-6,7,8,9-tetrahydro-5H-pyrimido[4,5-b][1,4]diazepin-2-ylamino)-3-methoxy-N-(pyridin-2-ylmethyl)benzamide]"
11,1 to 2.51,"COc1cc(C(=O)NC2CN(C)C2)ccc1Nc1ncc2c(n1)N(C1CCCC1)CC1(CC1)C(=O)N2C [Compound 163, 4-(9′-cyclopentyl-5′-methyl-6′-oxo-5′,6′,8′,9′-tetrahydrospiro[cyclopropane-1,7′-pyrimido[4,5-b][1,4]diazepine]-2′-ylamino)-3-methoxy-N-(1-methylazetidin-3-yl)benzamide]"
